Measured values as given in patent US8133864B2, “PAR-2 agonist” (Kowa Company, Ltd., priority 2005, dated 2012).
Where a name gives a salt, the structure may show the parent alone.

Key:
PAR-2 [1] = molecular target: T1, PAR-2 (Homo sapiens, UniProt P55085); assay: PAR-2 agonist-mediated intracellular calcium dynamics assay in HCT-15 cells (modified method of Howthorne et al.); format: cell-based; set-up: HCT-15 cells, human colorectal cancer cell lines endogenously expressing high level of PAR-2; endogenous in cells; host or cells: HCT-15 human colorectal cancer cells; details: for EC50: HCT-15 cells endogenously expressing PAR-2, Ca2+ sensitive fluorescent dye, 2.5 mM probenecid, serum-free RPMI
T1 sequence (P55085 26-397): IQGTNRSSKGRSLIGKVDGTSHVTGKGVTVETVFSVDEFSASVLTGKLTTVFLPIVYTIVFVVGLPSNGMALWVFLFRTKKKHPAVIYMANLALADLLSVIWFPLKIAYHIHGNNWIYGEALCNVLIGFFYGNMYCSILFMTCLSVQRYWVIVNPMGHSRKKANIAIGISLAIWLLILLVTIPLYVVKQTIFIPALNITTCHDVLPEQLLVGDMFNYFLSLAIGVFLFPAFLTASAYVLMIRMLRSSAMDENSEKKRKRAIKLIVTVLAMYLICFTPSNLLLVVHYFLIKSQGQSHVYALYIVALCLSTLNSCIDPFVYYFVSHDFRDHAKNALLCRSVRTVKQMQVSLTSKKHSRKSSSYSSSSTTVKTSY
Text: The PAR-2 activation of peptide derivatives represented by the general formula (1) can be tested by various known methods. For example, the method of Hollenberg (Hollenberg, M.D., et al., Can. J. Physiol. Pharmacol., 75, 832-841(1997)), the method of Kawabata et al. (Kawabata, A., et al., J. Pharmacol. Exp. Ther., 288, 358-370(1999)), the method of Howthorne et al. (Howthorne et al., A High-Throughput Microtiter Plate-Based Calcium Assay for the Study of Protease-Activated Receptor 2 Activation, Analytical Biochemistry 290, 378-379(2001)), and the like can be used. The present inventors tested PAR-2 activation potency by using the modified method of Howthorne et al. More specifically the method is for assaying calcium dynamics in a cell expressing human PAR-2 intracellularly. In this assay, PAR-2 agonist mediated calcium dynamics (concentration variability) in a cell is measured by using a multiple-well plate reader wherein the cell has Ca^2+ sensitive fluorescent dye introduced and stimulated by PAR-2 agonist under probenecid, which inhibits anion-exchange transporter, present. HCT-15 cells, human colorectal cancer cell lines endogenously expressing high level of PAR-2, were plated in a black-wall clear-bottom 96 well plate. Subconfluent cells were labeled with Ca^2+ sensitive fluorescent dye (Calcium Assay Reagent, Molecular Devices) in a RPMI culture medium in the presence of 2.5 mM probenecid absence of serum, and incubated for 1 hour at 37 ° C. Thereafter, the cells were stimulated with test compounds at various concentrations, and fluorescence change was measured using a scanning fluorometer (Flex Station, Molecular Devices) using excitation wavelength of 485 nm and fluorescence wavelength of 525 nm (cut-off wavelength of 515 nm). As a comparative compound, SLIGKV(SEQ ID: NO 1) —OH which is known as PAR-2 activated peptide was used. The results are shown in TAB.1.

PAR-2 [2] = molecular target: T1, PAR-2; details: relative to TRAP (tethered receptor agonist peptide); cited from earlier work

Row | Compound | EC50 (PAR-2 [1]) [µM] | agonist activity against PAR-2 (result in words; comparator not given, presumably the comparison compound) (PAR-2 [1]; HCT-15 cells, calcium assay) | intensity to activate PAR-2 relative to TRAP (PAR-2 [2])
1 | O=C(CNC(=O)[C@H](CC1CCCCC1)NC(=O)c1ccco1)NCC(=O)N[C@@H](CCCN1CCCCC1)C(=O)NCc1ccccc1 [Example 1, (S)-2-[(2-furoyl)-β-cyclohexyl-L-alanyl-glycyl-glycyl-amino]-5-(1-piperidinyl)pentanoic acid benzyl amide] | 2.3 ± 0.3 | higher agonist activity | –
2 | O=C(CNC(=O)[C@H](CC1CCCCC1)NC(=O)c1ccco1)NCC(=O)N[C@@H](CCCN1CCCCC1)C(=O)NCCN1CCCCC1 [Example 2, (S)-2-[(2-furoyl)-β-cyclohexyl-L-alanyl-glycyl-glycyl-amino]-5-(1-piperidinyl)pentanoic acid N-[2-(1-piperidinyl)ethyl] amide dihydrochloride] | 4.1 ± 0.4 | – | –
3 | Nα-benzoyl-Arg (NO2)-Leu-NH2 | – | – | about 1/100
